Results as given in ChEMBL document CHEMBL6182856, “Novel one-/two-photon excited carbazole/quinolinium photosensitizers manifest nanomolar and hypoxia-resistant tumor photodynamic therapy by accelerating apoptosis, ferroptosis, and autophagy” (Eur J Med Chem, 2025).
The source made the active and inactive calls. The calls are words filed in the database; no cut-off is given here.

What was measured:
[1] = Phototherapeutic index, ratio of IC50 for cytotoxicity against human A549 cells measured under hypoxia conditions to IC50 for phototoxicity against human A549 cells measured under hypoxia conditions and after two-photon excitation upon irradiation with light at 808 nm, 200 mW/cm2 for 10 mins; type: functional
[2] = Photosensitizing ability of the compound assessed as superoxide radical production upon irradiation by DHE probe based assay relative to KAKQ; type: functional
[3] = Photosensitizing ability of the compound assessed as singlet oxygen production measured upon irradiation by electron spin resonance analysis; type: functional
[4] = Phototoxicity against human A549 cells assessed as inhibition of cell growth incubated for 24 hrs measured under hypoxia conditions and after two-photon excitation upon irradiation with light at 808 nm, 200 mW/cm2 for 10 mins by MTT assay; type: functional, cell-based; conditions: A549, light or radiation study
A549 [5] = test: Induction of apoptosis in human A549 cells measured upon light irradiation by AnnexinV-FITC/PI staining based flow cytometric analysis relative to RuB; type: functional
[6] = Phototoxicity against mouse 4T1 cells assessed as inhibition of cell growth incubated for 24 hrs measured under normoxia conditions and after one-photon excitation upon irradiation with light at 520 nm, 200 mW/cm2 for 10 mins by MTT assay; type: functional, cell-based; conditions: 4T1, light or radiation study
[7] = Phototherapeutic index, ratio of IC50 for cytotoxicity against human A549 cells measured under hypoxia conditions to IC50 for phototoxicity against human A549 cells measured under hypoxia conditions and after one-photon excitation upon irradiation with light at 520 nm, 200 mW/cm2 for 10 mins; type: functional
[8] = Drug uptake in human A549 cells assessed as localization in lysosomes by measuring appearance of yellow fluorescence by Hoechst33342/LysoTracker dye based confocal laser scanning microscopic analysis; type: ADME, cell-based
[9] = Cytotoxicity against human HFL1 cells assessed as inhibition of cell growth incubated for 24 hrs by MTT assay; type: toxicity, cell-based
A549 [10] = test: (§1) Photosensitizing ability of the compound in human A549 cells assessed as increase in intracellular superoxide generation by measuring increase in fluorescence intensity measured upon light irradiation under normoxia conditions by DHE probe based fluorescence analysis relative to FLI in cells without irradiation; type: functional
[11] = Photosensitizing ability of the compound assessed as hydroxyl radical production measured upon irradiation by HPF probe based assay; type: functional
A549 [12] = test: Induction of autophagy in human A549 cells assessed as increase in active membrane bound form, […] expression measured upon light irradiation by western blot analysis relative to control; type: functional
A549 [13] = test: In vivo photodynamic therapy based antitumor activity against human A549 cells xenografted in mouse assessed as tumor growth inhibition administered intratumorally on day 0 and 7 and measured on day 15; type: functional; conditions: route it(Intratumoral); time 15 day
A549 [14] = test: Induction of ferroptosis in human A549 cells assessed as increase in lipid peroxidation by measuring increase in MDA level measured upon irradiation relative to control; type: functional
[15] = Toxicity against mouse xenografted with human A549 cells assessed as changes in hematological indicators administered intratumorally followed by exposure to light on day 0 and 7 and measured on day 15; conditions: in vivo, other, 360 h, route it(Intratumoral), time 15 day
[16] = Photosensitizing ability of the compound assessed as hydroxyl radical production measured upon irradiation by electron spin resonance analysis; type: functional
[17] = Phototherapeutic index, ratio of IC50 for cytotoxicity against human A549 cells measured under normoxia conditions to IC50 for phototoxicity against human A549 cells measured under normoxia conditions and after two-photon excitation upon irradiation with light at 808 nm, 200 mW/cm2 for 10 mins; type: functional
A549 [18] = test: In vivo photodynamic therapy based antitumor activity against human A549 cells xenografted in mouse assessed as tumor growth inhibition administered intratumorally followed by exposure to light on day 0 and 7 and measured on day 15; type: functional; conditions: route it(Intratumoral); time 15 day
A549 [19] = test: Induction of apoptosis in human A549 cells assessed as late apoptotic cells measured under dark conditions by AnnexinV-FITC/PI staining based flow cytometric analysis (reference value: 0.17%); type: functional
A549 [20] = test: Induction of ferroptosis in human A549 cells assessed as increase in lipid peroxidation by measuring increase in green fluorescence of the oxidized state measured upon irradiation by BODIPY 581/591C11 probe based confocal imaging analysis; type: functional, cell-based
[21] = Drug uptake in human A549 cells assessed as localization in mitochondria by measuring appearance of yellow fluorescence by Hoechst33342/MitoTracker dye based confocal laser scanning microscopic analysis; type: ADME
[22] = Photosensitizing ability of the compound assessed as hydroxyl radical production upon irradiation by HPF probe based assay relative to KAKQ; type: functional
A549 [23] = test: Induction of mitochondrial damage in human A549 cells assessed as increase in green fluorescence intensity measured upon light irradiation by JC-1 staining based fluorescence analysis; type: functional, cell-based
[24] = Photosensitizing ability of the compound in methanol assessed as singlet oxygen production by measuring quantum yield upon irradiation by DPBF based assay relative to KNKQ; type: functional
A549 [25] = test: as §1, with “singlet oxygen” for “superoxide”, “SOSG” for “DHE”; type: functional
A549 [26] = test: Cytotoxicity against human A549 cells assessed as inhibition of cell growth incubated for 24 hrs measured under normoxia conditions by MTT assay; type: functional, cell-based; conditions: A549, 24 h
A549 [27] = test: Induction of ROS generation in human A549 cells assessed as intracellular singlet oxygen level measured under normoxia conditions by SOSG probe based fluorescence analysis; type: functional, cell-based
HT-29 = test: Cytotoxicity against human HT-29 cells assessed as inhibition of cell growth incubated for 24 hrs measured under normoxia conditions by MTT assay; type: functional, cell-based; conditions: HT-29, 24 h
[28] = Photosensitizing ability of the compound assessed as superoxide radical production measured upon irradiation by DHE probe based assay; type: functional
A549 [29] = test: Photosensitizing ability of the compound in human A549 cells assessed as increase in intracellular superoxide generation by measuring increase in fluorescence intensity measured upon light irradiation under hypoxia conditions by DHE probe based fluorescence analysis; type: functional, cell-based
A549 [30] = test: Induction of apoptosis in human A549 cells assessed as late apoptotic cells measured upon light irradiation by AnnexinV-FITC/PI staining based flow cytometric analysis (reference value: 0.15%); type: functional
A549 [31] = test: Induction of ferroptosis in human A549 cells assessed as increase in lipid peroxidation by measuring decrease in GSH level measured upon irradiation relative to control; type: functional
A549 [32] = test: Induction of ferroptosis in human A549 cells assessed as increase in lipid peroxidation by measuring reduction in red fluorescence of the reduced state measured upon irradiation by BODIPY 581/591C11 probe based confocal imaging analysis; type: functional, cell-based
A549 [33] = test: Induction of apoptosis in human A549 cells assessed as early apoptotic cells measured upon light irradiation by AnnexinV-FITC/PI staining based flow cytometric analysis (reference value: 0.39%); type: functional
[34] = Photosensitizing ability of the compound assessed as superoxide radical production upon irradiation by DHE probe based assay relative to KNKQ; type: functional
A549 [35] = test: Induction of apoptosis in human A549 cells assessed as increase in cleaved caspase-3 expression measured upon light irradiation by western blot analysis relative to control; type: functional
A549 [36] = test: Induction of apoptosis in human A549 cells assessed as necrotic cells measured under dark conditions by AnnexinV-FITC/PI staining based flow cytometric analysis (reference value: 0.031%); type: functional
A549 [37] = test: Induction of autophagy in human A549 cells assessed as large circular vesicles engulfing small particles measured upon light irradiation by transmission electron microscopy; type: functional, cell-based

## CCn1c2ccc(/C=C/c3cc[n+](C)c4ccccc34)cc2c2cc(N(c3ccccc3)c3ccccc3)ccc21.[I-]
[1]
  Ratio IC50: 10
[2]
  fold change (FC): 8
[3]
  Activity: Active
[4]
  IC50: 200 nM
A549 [5]
  fold change (FC): 14
[6]
  IC50: 51 nM
[7]
  Ratio IC50: 46
[8]
  Drug uptake: Active
[9]
  IC50 at 24 h: 8.91 µM
A549 [10]
  fold change (FC): 4
[11]
  Activity: Active
A549 [12]
  fold change (FC): 2
A549 [13]
  TGI: 70.6%
A549 [14]
  fold change (FC): 10
[15]
  Activity: Non-toxic
[16]
  Activity: Active
[17]
  Ratio IC50: 11
A549 [18]
  TGI: 90.7%
A549 [19]
  Activity: 30.7%
A549 [20]
  Activity: Active
[21]
  Drug uptake: Active
[22]
  fold change (FC): 3
A549 [23]
  Activity: Active
[24]
  fold change (FC): 3
A549 [25]
  fold change (FC): 4
A549 [26]
  IC50: 1470 nM
A549 [27]
  Activity: inactive
HT-29
  IC50: 1480 nM
[28]
  Activity: Active
A549 [29]
  Activity: Active
A549 [30]
  Activity: 87.8%
A549 [31]
  fold change (FC): 100
A549 [32]
  Activity: Active
A549 [33]
  Activity: 2.36%
[34]
  fold change (FC): 8
A549 [35]
  fold change (FC): 3
A549 [36]
  Activity: 0.85%
A549 [37]
  Activity: Active
